Results on 2 compounds are retold here after a compilation of properties of binary mixtures (doi:10.1021/je990084v).

A short description of the data set: excess molar enthalpy (molar enthalpy of mixing); xn = mol fraction of the nth substance listed. The conditions noted are these: 298.15 K, 100 kPa.

On to `CC(C)OC(C)C` + CCC(C)O, for which the excess molar enthalpy was determined as 0.692 kJ/mol (x2 = 0.214); 0.792 kJ/mol (x2 = 0.3094); 0.827 kJ/mol (x2 = 0.4262); 0.781 kJ/mol (x2 = 0.5328); 0.712 kJ/mol (x2 = 0.6067); 0.611 kJ/mol (x2 = 0.6761). The same compound showed an excess molar enthalpy (x2 = 0.72) of 0.555 kJ/mol.

With `CC(C)OC(C)C` + CCCCO, the excess molar enthalpy was found to be 0.255 kJ/mol (x2 = 0.0754); 0.338 kJ/mol (x2 = 0.1116); 0.458 kJ/mol (x2 = 0.2147); 0.495 kJ/mol (x2 = 0.3102); 0.428 kJ/mol (x2 = 0.5338); 0.37 kJ/mol (x2 = 0.6007). For the setting “x2 = 0.677”, this compound registered an excess molar enthalpy of 0.463 kJ/mol.
